From patent US6852687B2, “Method for inhibiting apoptosis” (Sucampo AG, priority 2001, dated 2005)

Legend:
[1] = system: Conjunctival epithelial cell line CCL-20.2; assay: DNA fragmentation (Cell Death Detection ELISAPLUS); format: cell-based; conditions: Example 1; albumin 1 mg/ml in serum-free medium 199, 24 hours, n=4; measured at 405 nm; control without albumin 0.111 ± 0.018
Method: (§1) Conjunctival epithelial cell line CCL-20.2 (obtained from American Type Culture Collection) was incubated in serum-containing medium 199 (Gibco) until 60-70% of confluent. The cells were washed with a serum-free medium and were resuspended in serum-free medium 199 containing albumin 1 mg/ml or serum-free medium 199 containing no albumin. The cells were then incubated for 24 hours and collected.
DNA fragmentation was determined with the Cell Death Detection ELISAPLUS (Roche Diagnostics Corporation, Basel, Switzerland). 2×10^4 cells were lysed with 0.1 ml of buffering solution and centrifuged to collect the supernatant. The obtained supernatant as well as positive and background controls, each in the amount of 20 μl, was respectively added to a plate coated with streptavidin. After adding an immunologic reagent (incubation buffer: antihistone-biotin: anti-DNA-POD=18:1:1) 80 μl to each plate, it was coated with a film and shaken at 300 rpm for 2 hours at room temperature. Then the plate was washed with incubation buffer 250-300 μl for 3 times. After adding substrate (ABTS) solution 100 μl to the plate, it was shaken at 250 rpm for 10-20 minutes at room temperature. The measurement was 405 nm (reference wavelength 492 nm)(n=4).

[2] = system: Conjunctival epithelial cell line CCL-20.2; assay: Caspase-3 activity of conjunctival epithelial cells incubated in serum-free medium (Z-DEVD-AFC fluorescence); format: cell-based; conditions: for caspase-3 activity compared with the control group: serum-free, 24 hours, n=3
Method: as §1
The caspase-3 activities of the collected cells were determined. The cells were lysed in a buffer solution (50 mM HEPES, 1 mM dithiothreitol and 0.1 mM EDTA (pH7.4)) containing 0.1% CHAPS (3-[(3-cholamidopropyl) dimethylammonio]-2-hydroxy-1-propanesulfonic acid) and were centrifuged to collect the supernatant. The caspase activity in the supernatant was determined with 0.1 mM fluorescence substrate (Z-DEVD-AFC) by means of fluorescence intensity measurement(em:505 nm, ex:400 nm) (n=4).
Conjunctival epithelial cell line CCL-20.2 (obtained from American Type Culture Collection) was incubated in serum-containing medium 199 (Gibco) until 70-80% of confluent. The cells were washed with serum-free medium and resuspended in serum-free medium 199 containing albumin 3 mg/ml; albumin 3 mg/ml+EGF10 ng/ml; albumin 3 mg/ml+vitamin A 0.1 μg/ml; or albumin 3 mg/ml+EGF10 ng/ml+vitamin A 0.1 μg/ml. […]
The caspase-3 activities of the collected cells were measured. […] The caspase activity in the supernatant was determined with 0.1 mM fluorescence substrate (Z-DEVD-AFC) by means of fluorescence intensity measurement(em:505 nm, ex:400 nm) (n=3). […]
The caspase-3 activities of the collected cells were measured. […] The caspase activity in the supernatant was determined with 0.1 mM fluorescence substrate (Z-DEVD-AFC) by means of fluorescence intensity measurement (em:505 nm, ex:400 nm) (n=3). […]
The caspase-3 activities of the collected cells were measured. […] The caspase activity in the supernatant was determined with 0.1 mM fluorescence substrate (Z-DEVD-AFC) by means of fluorescence intensity measurement (em: 505 nm, ex: 400 nm) (n=3).

albumin
DNA fragmentation mean ± S.E. [1]: 0.096 ± 0.047
Caspase-3 activity mean ± S.E. ([2]; Example 1, albumin 1 mg/ml in serum-free medium 199, 24 hours, n=4, control without albumin 0.744 ± 0.246): 0.510 ± 0.191 n mol/hr/mg protein
caspase-3 activity compared with the control group ([2]; Example 2, FIG. 1, albumin 3 mg/ml, EGF 10 ng/ml, vitamin A 0.1 μg/ml): significantly lower
caspase-3 activity compared with the control group ([2]; Example 3, FIG. 2, albumin 1 mg/ml, TGFα 10 ng/ml, TGFβ 10 ng/ml): significantly lower
